Measurements: ChEMBL document CHEMBL5154826, “Discovery of the Clinical Candidate MAK683: An EED-Directed, Allosteric, and Selective PRC2 Inhibitor for the Treatment of Advanced Malignancies” (J Med Chem, 2022)
Values after ≈ are worked out from the molar mass of the structure shown.

How the values were obtained:
[1] = Reduction of H3K27me3 level in human Karpas-422 cells xenografted Athymic BALB/c nude mouse tumor assessed at 10 mg/kg, po twice a day for 21 days; type: functional; parameters: scale not given: the % may be the effect or the level left; details: time 21 day
[2] = Inhibition of PRC2 (unknown origin) assessed as reduction in H3K27 trimethylation using H3K27Me0 peptide (21 to 44 residues) as substrate by measuring SAH formation by LC-MS analysis; parameters: species or system Homo sapiens
KARPAS-422 = test: Antiproliferative activity against human KARPAS-422 cells expressing EZH2 mutant assessed as inhibition of cell growth after 14 days by beckman coulter counting method; type: functional; details: time 14 day
[3] = Dissociation constant, pKa of compound; type: physicochemical
[4] = High throughput solubility of the compound in FaSSIF after 16 to 24 hrs by MS/MS analysis; type: physicochemical; details: time 16-24 hrs
[5] = Unbound plasma concentration in Athymic BALB/c nude mouse xenografted with human Karpas-422 cells at 10 to 300 mg/kg, po after 12 hrs by HPLC-MS/MS analysis; type: ADME, organism-based; details: in vivo, dose 10-300 mg/kg
[6] = Dose normalized AUC in ICR (CD-1) mouse at 2 mg/kg, po or 1 mg/kg, iv after 1 week by LC-MS/MS analysis; type: ADME, organism-based; details: in vivo, 168 h, time 1 weeks
[7] = Dose normalized AUC in Sprague-Dawley rat at 2 mg/kg, po or 1 mg/kg, iv after 1 week by LC-MS/MS analysis; type: ADME, organism-based; details: in vivo, 168 h, time 1 weeks
[8] = Dose normalized Cmax in ICR (CD-1) mouse at 2 mg/kg, po or 1 mg/kg, iv after 1 week by LC-MS/MS analysis; type: ADME, organism-based; details: in vivo, 168 h, time 1 weeks
[9] = Intrinsic clearance in dog hepatocytes measured per 10^6 cells; type: ADME, cell-based, Canis lupus familiaris, Hepatocyte; details: read-out: CLH
[10] = Drugmetabolism in rat hepatocytes assessed as CYP3A4 mediated metabolite formation; type: ADME, cell-based, Hepatocyte
[11] = Drug metabolism in bile duct cannulated Wistar Han rat assessed as parent compound recovery in bile at 3 mg/kg, iv after 8 hrs by LC-MS/MS analysis; type: ADME, organism-based; details: read-out: Drug metabolism

- IC50 [2]: 9 µM
- GI50 (KARPAS-422; Homo sapiens, KARPAS-422, 336 h): 4 µM
- GI90 (KARPAS-422): 8 µM
- pKa [3]: 5.2
- solubility [4]: 25 µM (≈ 9.41 µg/mL)
- Cp(f) [5]: 8 nM
- AUC/dose [6]: 884 nM·h
- AUC/dose [7]: 2939 nM·h
- Cmax/dose [8]: 356 nM
- hepatocyte CLint [9]: 4.8 µL/min/1e6 cells
- Drug metabolism [10]: Metabolite_Detected
- dose excreted at 8 h [11]: 0.3%
Compound: Cc1ncccc1-c1cnc(NCc2c(F)ccc3c2CCO3)n2cnnc12
- Activity [1]: >50%
